Data: ChEMBL document CHEMBL1153701, “Synthesis and evaluation of antiallodynic and anticonvulsant activity of novel amide and urea derivatives of valproic acid analogues” (2009)
Active and inactive are the calls of the source. The calls are words filed in the database; no cut-off is given here.

Legend:
Assay type in all cases: functional, organism-based
Mus musculus [1] = assay: Antiepileptic activity in CF1 mouse assessed as inhibition of maximal electroshock-induced seizures at 30 mg/kg, ip after 0.5 hrs; design: dose 30 mg/kg
Mus musculus [2] = assay: Antiepileptic activity in CF1 mouse assessed as inhibition of maximal electroshock-induced seizures at 300 mg/kg, ip after 4 hrs; design: dose 300 mg/kg
Mus musculus [3] = assay: Antiepileptic activity in CF1 mouse assessed as inhibition of maximal electroshock-induced seizures at 100 mg/kg, ip after 4 hrs; design: dose 100 mg/kg
Mus musculus [4] = assay: Antiepileptic activity in CF1 mouse assessed as inhibition of subcutaneous pentylenetetrazole-induced seizures at 100 mg/kg, ip after 0.5 hrs; design: dose 100 mg/kg
Rattus norvegicus [5] = assay: Antiallodynic activity in rat assessed as protection against spinal nerve ligation-induced neuropathic pain at 80 mg/kg, ip after 30 mins; design: dose 80 mg/kg
Mus musculus [6] = assay: Neurotoxicity in CF1 mouse assessed as protection against motor impairment at 30 mg/kg, ip after 4 hrs by rotarod test; design: dose 30 mg/kg
Mus musculus [7] = assay: Neurotoxicity in CF1 mouse assessed as protection against motor impairment at 30 mg/kg, ip after 0.5 hrs by rotarod test; design: dose 30 mg/kg
Mus musculus [8] = assay: Neurotoxicity in CF1 mouse assessed as protection against motor impairment at 300 mg/kg, ip after 0.5 hrs by rotarod test; design: dose 300 mg/kg
Mus musculus [9] = assay: Antiepileptic activity in CF1 mouse assessed as inhibition of subcutaneous pentylenetetrazole-induced seizures at 30 mg/kg, ip after 4 hrs; design: dose 30 mg/kg
Mus musculus [10] = assay: Antiepileptic activity in CF1 mouse assessed as inhibition of subcutaneous pentylenetetrazole-induced seizures at 300 mg/kg, ip after 4 hrs; design: dose 300 mg/kg
Mus musculus [11] = assay: Neurotoxicity in CF1 mouse assessed as protection against motor impairment at 100 mg/kg, ip after 4 hrs by rotarod test; design: dose 100 mg/kg
Mus musculus [12] = assay: Antiepileptic activity in CF1 mouse assessed as inhibition of subcutaneous pentylenetetrazole-induced seizures at 300 mg/kg, ip after 0.5 hrs; design: dose 300 mg/kg
Mus musculus [13] = assay: Neurotoxicity in CF1 mouse assessed as protection against motor impairment at 100 mg/kg, ip after 0.5 hrs by rotarod test; design: dose 100 mg/kg
Mus musculus [14] = assay: Antiepileptic activity in CF1 mouse assessed as inhibition of subcutaneous pentylenetetrazole-induced seizures at 100 mg/kg, ip after 4 hrs; design: dose 100 mg/kg
Mus musculus [15] = assay: Antiepileptic activity in CF1 mouse assessed as inhibition of maximal electroshock-induced seizures at 30 mg/kg, ip after 4 hrs; design: dose 30 mg/kg
Mus musculus [16] = assay: Antiepileptic activity in CF1 mouse assessed as inhibition of subcutaneous pentylenetetrazole-induced seizures at 30 mg/kg, ip after 0.5 hrs; design: dose 30 mg/kg
Mus musculus [17] = assay: Neurotoxicity in CF1 mouse assessed as protection against motor impairment at 300 mg/kg, ip after 4 hrs by rotarod test; design: dose 300 mg/kg
Mus musculus [18] = assay: Antiepileptic activity in CF1 mouse assessed as inhibition of maximal electroshock-induced seizures at 300 mg/kg, ip after 0.5 hrs; design: dose 300 mg/kg
Mus musculus [19] = assay: Antiepileptic activity in CF1 mouse assessed as inhibition of maximal electroshock-induced seizures at 100 mg/kg, ip after 0.5 hrs; design: dose 100 mg/kg
Rattus norvegicus [20] = assay: Antiallodynic activity in rat assessed as protection against spinal nerve ligation-induced neuropathic pain at 80 mg/kg, ip after 240 mins; design: dose 80 mg/kg
Rattus norvegicus [21] = assay: Antiallodynic activity in rat assessed as protection against spinal nerve ligation-induced neuropathic pain at 80 mg/kg, ip after 60 mins; design: dose 80 mg/kg

| SMILES | Activity (Mus musculus [1]) | Activity (Mus musculus [2]) | Activity (Mus musculus [3]) | Activity (Mus musculus [4]) | Activity (Rattus norvegicus [5]) | Activity (Mus musculus [6]) | Activity (Mus musculus [7]) | Activity (Mus musculus [8]) | Activity (Mus musculus [9]) | Activity (Mus musculus [10]) | Activity (Mus musculus [11]) | Activity (Mus musculus [12]) | Activity (Mus musculus [13]) | Activity (Mus musculus [14]) | Activity (Mus musculus [15]) | Activity (Mus musculus [16]) | Activity (Mus musculus [17]) | Activity (Mus musculus [18]) | Activity (Mus musculus [19]) | further results |
| --- | --- | --- | --- | --- | --- | --- | --- | --- | --- | --- | --- | --- | --- | --- | --- | --- | --- | --- | --- | --- |
| CCCCC(CC)C(=O)NC (centres undefined) | inactive | Active | inactive | inactive | inactive | inactive | inactive | Active | inactive | inactive | inactive | Active | inactive | inactive | inactive | inactive | inactive | Active | – | – |
| CC(C)CC(C(N)=O)C(C)C (centres undefined) | inactive | inactive | inactive | inactive | – | inactive | inactive | – | inactive | inactive | inactive | Active | – | inactive | inactive | inactive | inactive | inactive | inactive | Activity (Rattus norvegicus [20]): inactive |
| CC(C)(C)C(=O)NC(N)=O | – | – | – | – | inactive | – | – | – | – | – | – | – | – | – | – | – | – | – | – | Activity (Rattus norvegicus [20]): inactive |
| CCCC(CC(C)C)C(N)=O (centres undefined) | inactive | inactive | inactive | inactive | – | inactive | inactive | Active | inactive | inactive | inactive | Active | inactive | inactive | inactive | inactive | inactive | Active | inactive | Activity (Rattus norvegicus [20]): inactive |
| CC(C)C(C(=O)NC(N)=O)C(C)C | inactive | Active | inactive | Active | – | inactive | – | Active | inactive | inactive | inactive | Active | – | inactive | inactive | inactive | Active | Active | – | – |
| CCC(C)C(CC)C(=O)NC (centres undefined) | inactive | inactive | inactive | inactive | inactive | inactive | inactive | – | inactive | inactive | inactive | Active | – | inactive | inactive | inactive | inactive | inactive | inactive | – |
| CCC(CC)C(N)=O | inactive | inactive | inactive | inactive | inactive | inactive | inactive | inactive | inactive | inactive | inactive | inactive | – | inactive | inactive | inactive | inactive | Active | – | Activity (Rattus norvegicus [21]): inactive |
| CCCC(C(=O)NC)C(C)C (centres undefined) | inactive | inactive | inactive | inactive | inactive | inactive | inactive | Active | inactive | inactive | inactive | Active | inactive | inactive | inactive | inactive | inactive | inactive | inactive | – |
| CC(C)C(C(N)=O)C(C)(C)C (centres undefined) | inactive | Active | inactive | Active | – | inactive | inactive | Active | inactive | Active | inactive | Active | – | inactive | inactive | inactive | Active | Active | – | – |
| CC(C)(C)C(N)=O | inactive | inactive | inactive | – | – | inactive | inactive | inactive | inactive | inactive | inactive | inactive | inactive | inactive | inactive | inactive | inactive | inactive | inactive | Activity (Rattus norvegicus [20]): inactive |
| CNC(=O)C(C(C)C)C(C)C | inactive | inactive | inactive | inactive | inactive | inactive | inactive | – | inactive | inactive | inactive | – | – | inactive | inactive | inactive | inactive | Active | inactive | – |
| CCC(CC(C)C)C(N)=O (centres undefined) | inactive | inactive | inactive | inactive | inactive | inactive | inactive | Active | inactive | Active | inactive | – | inactive | inactive | inactive | inactive | inactive | Active | inactive | – |
| CCCC(CCC)C(=O)NC(N)=O | inactive | Active | inactive | Active | – | – | – | – | inactive | inactive | inactive | Active | – | inactive | inactive | inactive | – | Active | Active | – |
| CCC(C(N)=O)C(C)C (centres undefined) | inactive | inactive | inactive | inactive | – | inactive | inactive | – | inactive | inactive | inactive | inactive | inactive | inactive | inactive | inactive | inactive | Active | inactive | – |
| CCCC(CC)C(N)=O (centres undefined) | inactive | Active | inactive | inactive | – | inactive | inactive | – | inactive | inactive | inactive | Active | inactive | inactive | inactive | inactive | inactive | Active | – | – |
